The results in this text go back to ChEMBL document CHEMBL5046249, “Synthesis, biological evaluation and cellular localization study of fluorescent derivatives of Jiyuan Oridonin A” (Eur J Med Chem, 2022).

Calls of active or inactive are those of the source. No cut-off for these calls is given here.

The subject of data set [1] is HGC-27. The data set can be described thus: Induction of apoptosis in human HGC-27 cells assessed as enhance brightness of fluorescence at 0.5 to 2 uM by Hoechst 33342 staining based fluorescence assay. It is filed as functional, cell-based. As to conditions: dose 0.5-2 µM.
Data set [2] relates to HGC-27. The data set can be described thus: Induction of apoptosis in human HGC-27 cells assessed as nuclear cohesion at 0.5 to 2 uM by Hoechst 33342 staining based fluorescence assay. As to conditions: dose 0.5-2 µM. It is filed as functional, cell-based.
For data set [3], the system named is HGC-27. The data set can be described thus: Induction of apoptosis in human HGC-27 cells assessed as nuclear rupture at 0.5 to 2 uM by Hoechst 33342 staining based fluorescence assay. It is filed as functional, cell-based. As to conditions: dose 0.5-2 µM.
The test system of data set [4] is HGC-27. The data set can be described thus: Induction of apoptosis in human HGC-27 cells assessed as increase in total apoptotic cells by Hoechst 33342 staining based fluorescence assay. It is filed as functional, cell-based. As to conditions: dose 0.5-2 µM.
The test system of another data set is MGC-803. Briefly: Antiproliferative activity against human MGC-803 cells assessed as inhibition of cell growth measured after 72 hrs by SRB assay. As to conditions: MGC-803, 72 h. It is filed as functional, cell-based.
Another data set has as its system SW1990. Briefly: Antiproliferative activity against human SW1990 cells assessed as inhibition of cell growth measured after 72 hrs by SRB assay. Format: functional, cell-based. As to conditions: SW1990, 72 h. A general note: Sulforhodamine B stains cellular protein and so reports cell mass.
For another data set, the system named is TE-1. Briefly: Antiproliferative activity against human TE-1 cells assessed as inhibition of cell growth measured after 72 hrs by SRB assay. It is filed as functional, cell-based. As to conditions: TE-1, 72 h.
Data set [5] in a line: Drug localization in nucleus of human HGC-27 cells at 2 uM incubated for 1 hr by DAPI staining based confocal laser microscopic analysis. Format: ADME, cell-based. As to conditions: hgc-27, 1 h.
In data set [6] the test system is HGC-27. Briefly: Induction of apoptosis in human HGC-27 cells assessed as increase in Bax expression upto 2 uM measured after 24 hrs by Western blot analysis. Format: functional, cell-based. As to conditions: dose microM <=2, time 24.0 hrs. A general note: Immunoblotting shows a protein as a band on a membrane.
The test system of data set [7] is HGC-27. The data set can be described thus: Inhibition of colony formation in human HGC-27 cells measured for 24 hrs by crystal violet staining based assay. It is filed as functional, cell-based. As to conditions: dose microM <=2, time 24.0 hrs.
Data set [8] is described as follows: Drug uptake in human HGC-27 cells assessed as increase in fluorescence intensity of green signal at 8 uM measured after 1 hr by fluorescence microscopic analysis. Format: ADME, cell-based. As to conditions: hgc-27, 1 h.
The subject of data set [9] is HGC-27. The data set can be described thus: Induction of mitochondrial membrane potential loss in human HGC-27 cells assessed as decrease in red fluorescence intensity upto 2 uM incubated for 24 hrs by TMRM dye based flow cytometric analysis. As to conditions: dose microM <=2, time 24.0 hrs. Format: functional, cell-based. On the technique in general: A flow cytometer gives signals particle by particle.

Data set [10] in a line: Cytotoxicity against human GES1 cells assessed as inhibition of cell growth measured after 72 hrs by SRB assay. Format: toxicity, cell-based.
The subject of data set [11] is HGC-27. Briefly: Induction of apoptosis in human HGC-27 cells assessed as increase in cytochrome-c expression upto 2 uM measured after 24 hrs by Western blot analysis. It is filed as functional, cell-based. As to conditions: dose microM <=2, time 24.0 hrs.
A short description of data set [12]: Drug localization in mitochondria of human HGC-27 cells at 2 uM incubated for 1 hr by Mitotracker red dye based confocal laser microscopy analysis. Format: ADME. As to conditions: hgc-27, 1 h.
Another data set has as its system PC-3. Briefly: Antiproliferative activity against human PC-3 cells assessed as inhibition of cell growth measured after 72 hrs by SRB assay. Format: functional, cell-based. As to conditions: PC-3, 72 h.
Data set [13] relates to HGC-27. Briefly: Induction of apoptosis in human HGC-27 cells assessed as increase in cleaved caspase-9 expression upto 2 uM measured after 24 hrs by Western blot analysis. As to conditions: dose microM <=2, time 24.0 hrs. Format: functional, cell-based.
For data set [14], the system named is HGC-27. The data set can be described thus: Induction of apoptosis in human HGC-27 cells assessed as decrease in Bcl-2 expression upto 2 uM measured after 24 hrs by Western blot analysis. Format: functional, cell-based. As to conditions: dose microM <=2, time 24.0 hrs.
Data set [15] relates to HGC-27. The data set can be described thus: Antiproliferative activity against human HGC-27 cells assessed as inhibition of cell growth measured after 72 hrs by SRB assay. It is filed as functional, cell-based. As to conditions: HGC-27, 72 h.
Data set [16] relates to HGC-27. The data set can be described thus: Induction of apoptosis in human HGC-27 cells assessed as increase in cleaved caspase-3 expression upto 2 uM measured after 24 hrs by Western blot analysis. Format: functional, cell-based. As to conditions: dose microM <=2, time 24.0 hrs.
Data set [17] is described as follows: Drug uptake in human HGC-27 cells assessed as increase in fluorescence intensity by fluorescence microscopic analysis. Format: ADME, cell-based. As to conditions: dose 2-8 µM, time <=60 min.
Data set [18] deals with HGC-27. The data set can be described thus: Antimigratory activity against human HGC-27 cells assessed as inhibition of cell migration measured after 24 hrs by cell scratch assay. As to conditions: dose microM <=2, time 24.0 hrs. It is filed as functional, cell-based.

Take `C=C1C(=O)[C@]23[C@H](O)[C@H]1C[C@H](O)[C@H]2[C@]12CCCC(C)(C)[C@H]1C[C@H]3O[C@H]2OCCCCCc1cn(CCOCCOCCOCCN2C(=O)c3cccc4c(N5CCCCC5)ccc(c34)C2=O)nn1`: the result with HGC-27 [1], in the data set on HGC-27 [2], in the data set on HGC-27 [3], in the data set on HGC-27 [4], with HGC-27 [6] and in the data set with HGC-27 [9] was Active. Moreover, the result in the data set on HGC-27 [11], in the data set on HGC-27 [13], in the data set with HGC-27 [14] and with HGC-27 [16] was Active. The IC50 is 0.64 µM with MGC-803; 0.86 µM in the data set with SW1990; 0.73 µM with TE-1; 0.68 µM in the data set with PC-3; 0.39 µM with HGC-27 [15]. Moreover, the Drug uptake entry is “Not Active” in [5]; “Active” in data set [8]; “Active” in data set [12]; “Dose-Dependent Effect and Tde” in data set [17]. Moreover, the Activity result in the data set on HGC-27 [7] and with HGC-27 [18] was “Dose-Dependent Effect” each time. Besides, in data set [10], the IC50 at 72 h turned out to be 18.1 µM.

For `C=C1C(=O)[C@]23[C@H](O)[C@H]1C[C@H](O)[C@H]2[C@]12CCCC(C)(C)[C@H]1C[C@H]3O[C@H]2O`, the IC50 in the data set on MGC-803 is 7.19 µM; in the data set with SW1990, 7.36 µM; in the data set with TE-1, 8.82 µM; in the data set on PC-3, 8.43 µM; in the data set with HGC-27 [15] it was 4.98 µM. Further, the Drug uptake entry in data set [8] is on record as “Not Active”.

For `O=C1c2cccc3c(N4CCCCC4)ccc(c23)C(=O)N1CCOCCOCCOCCn1cc(CCCO)nn1`, the IC50 in the data set with MGC-803, with SW1990, in the data set on TE-1, in the data set with PC-3 and with HGC-27 [15] was above 32 µM throughout. Besides, in data set [8], the Drug uptake entry was “Not Active”.

Consider `C=C1C(=O)[C@]23[C@H](O)[C@H]1C[C@H](O)[C@H]2[C@]12CCCC(C)(C)[C@H]1C[C@H]3O[C@H]2OCCCc1cn(CCCCCN2C(=O)c3cccc4c(N5CCCCC5)ccc(c34)C2=O)nn1`, for which the IC50 in the data set on MGC-803 came to 1.53 µM; in the data set with SW1990, 1.38 µM; with TE-1, 3.94 µM; in the data set on PC-3, 1.67 µM; in the data set on HGC-27 [15] it was 3.31 µM.

As for `C#CCCCCCO[C@@H]1O[C@@H]2C[C@@H]3C(C)(C)CCC[C@]13[C@@H]1[C@@H](O)C[C@H]3C(=C)C(=O)[C@@]21[C@@H]3O`, the concentration for half-maximal inhibition (IC50) in the data set on MGC-803 stood at 3.15 µM; with SW1990, 2.91 µM; with TE-1 it was 2.44 µM; with PC-3, 2.45 µM; in the data set with HGC-27 [15] it was 2.89 µM.

Turning to `[N-]=[N+]=NCCCCCN1C(=O)c2cccc3c(N4CCCCC4)ccc(c23)C1=O`, the IC50 in the data set on MGC-803, with SW1990, with TE-1, with PC-3 and with HGC-27 [15] was above 32 µM throughout.

Consider `C=C1C(=O)[C@]23[C@H](O)[C@H]1C[C@H](O)[C@H]2[C@]12CCCC(C)(C)[C@H]1C[C@H]3O[C@H]2OCCCCc1cn(CCOCCN2C(=O)c3cccc4c(N5CCCCC5)ccc(c34)C2=O)nn1`, for which the IC50 in the data set on MGC-803 amounted to 3.21 µM; in the data set on SW1990, 2.25 µM; in the data set on TE-1 it was 2.7 µM; with PC-3, 1.24 µM; in the data set with HGC-27 [15], 1.95 µM.

In general, IC50 refers to the midpoint of a concentration-inhibition curve.
